Assay results: US12459974B2, “Bicyclic peptide ligands specific for Nectin-4” (priority 2018, dated 2025)
Values joined by “and” are separate entries in the source; they are usually repeats but may differ in a detail not shown here. Identical values can stand only once. *1 amine or outer side, *2 acyl side, *3 side chain or, on linkers, in order; H or OH if unused. Where a SMILES comes first, the peptide text is derived from it. Bridges are numbered along the chain shown (N, C = ends). Roman numbers before positions name the chains, in order. [ ]: non-standard residue; d: D form. The star is where a group is joined. ξ: configuration not given here. TATA = O=C(CC[*:1])N1CN(C(=O)CC[*:2])CN(C(=O)CC[*:3])C1; Dolaproine = CO[C@@H]([C@@H]1CCCN1)[C@@H](C)C(=O)O; X1 = CC[C@H](C)C(C(CC(=O)[*:2])OC)N(C)[*:1]; 1Nal = N[C@@H](Cc1cccc2ccccc12)C(=O)O; X3 = O=C(CCCC(=O)[*:2])NCCC(=O)[*:1]; PABC = O=C(OCc1ccc(N[*:1])cc1)[*:2]; Hyp = O=C(O)[C@@H]1C[C@@H](O)CN1; hArg = N=C(N)NCCCC[C@H](N)C(=O)O; Cit = NC(=O)NCCC[C@H](N)C(=O)O; X2 = CC(N*)[C@@H](O)c1ccccc1; ξNMeV = CNC(C(=O)O)C(C)C; ξV = CC(C)C(N)C(=O)O; Sar = CNCC(=O)O

Legend:
NCI-H292 xenograft = assay: Example 1: in vivo efficacy in NCI-H292 xenograft (NSCLC model) in BALB/c nude mice; parameters: species or system Mus Musculus; settings: for T/C / TGI: day 14 (Table 13)
Experimental: (§1) The major endpoint was to see if the tumor growth could be delayed or mice could be cured. Tumor volume was measured three times weekly in two dimensions using a caliper, and the volume was expressed in mm^3 using the formula: V=0.5 a×b^2 where a and b are the long and short diameters of the tumor, respectively. The tumor size was then used for calculations of T/C value. The T/C value (in percent) is an indication of antitumor effectiveness; T and C are the mean volumes of the treated and control groups, respectively, on a given day. TGI was calculated for each group using the formula: TGI (%)=[1−(Ti−T0)/(Vi−V0)]×100; Ti is the average tumor volume of a treatment group on a given day, T0 is the average tumor volume of the treatment group on the day of treatment start, Vi is the average tumor volume of the vehicle control group on the same day with Ti, and V0 is the average tumor volume of the vehicle group on the day of treatment start.
(§2) A one-way ANOVA was performed to compare tumor volume among groups, and when a significant F-statistics (a ratio of treatment variance to the error variance) was obtained, comparisons between groups were carried out with Games-Howell test. All data were analyzed using GraphPad Prism 5.0. P<0.05 was considered to be statistically significant.
The NCI-H292 tumor cells will be maintained in medium supplemented with 10% heat inactivated fetal bovine serum at 37° C. in an atmosphere of 5% CO2 in air. The tumor cells will be routinely subcultured twice weekly. The cells growing in an exponential growth phase will be harvested and counted for tumor inoculation.
Each mouse will be inoculated subcutaneously at the right flank with NCI-H292 tumor cells (10×10^6) in 0.2 ml of PBS for tumor development. The animals will be randomized and treatment will be started when the average tumor volume reaches approximately 158-406 mm^3.

LU-01-0412 PDX = assay: Example 12: in vivo efficacy in Lu-01-0412 PDX model of lung cancer; parameters: species or system Mus Musculus
Experimental: Animals were checked daily for any effects of tumor growth and treatments on normal behavior such as mobility, food and water consumption (by looking only), body weight gain/loss, eye/hair matting and any other abnormal effect as stated in the protocol. Death and observed clinical signs were recorded on the basis of the numbers of animals within each subset.

NCI-H526 xenograft = assay: Example 9.6: in vivo efficacy in NCI-H526 xenograft in Balb/c nude mice; settings: for Tumor volume: iv
Experimental: as §1, §2
• Species: Mus Musculus • Strain: Balb/c nude • Age: 6-8 weeks • Sex: female • Body weight: 18-22 g • Number of animals: 21 mice plus spare 3.1.2.
The NCI-H526 cells were maintained in medium supplemented with 10% heat inactivated fetal bovine serum at 37° C. in an atmosphere of 5% CO2 in air. The tumor cells were routinely subcultured twice weekly. The cells growing in an exponential growth phase were harvested and counted for tumor inoculation.
Each mouse was inoculated subcutaneously at the right flank with NCI-H526 tumor cells (5.0×10^6 in 0.2 ml of PBS for tumor development. 21 animals were randomized when the average tumor volume reached 181 mm^3. The test article administration and the animal numbers in each group were shown in the experimental design table.
Tumor growth inhibition rate for test articles in the NCI-H526 xenograft model was calculated based on tumor volume measurements at day 14 after the start of the treatment.

## CC[C@H](C)C(C(CC(=O)N1CCC[C@H]1[C@H](OC)[C@@H](C)C(=O)NC(C)[C@@H](O)c1ccccc1)OC)N(C)C(=O)[C@@H](NC(=O)C(C(C)C)N(C)C(=O)OCc1ccc(NC(=O)[C@H](CCCNC(N)=O)NC(=O)C(NC(=O)CCCC(=O)NCCC(=O)N(C)CC(=O)N(C)CC(=O)N(C)CC(=O)N(C)CC(=O)N(C)CC(=O)N(C)CC(=O)N(C)CC(=O)N(C)CC(=O)N(C)CC(=O)N(C)CC(=O)N[C@H]2CSCCC(=O)N3CN4CN(C3)C(=O)CCSC[C@H](NC(=O)[C@@H](CC(=O)O)NC(=O)[C@H](Cc3cccc5ccccc35)NC(=O)[C@@H]3CCCN3C2=O)C(=O)N[C@@H](CCSC)C(=O)N[C@@H](CCCCNC(=N)N)C(=O)N[C@@H](CC(=O)O)C(=O)N[C@@H](Cc2c[nH]c3ccccc23)C(=O)N[C@@H](CO)C(=O)N[C@@H]([C@@H](C)O)C(=O)N2CCC[C@H]2C(=O)N2C[C@H](O)C[C@H]2C(=O)N[C@@H](Cc2c[nH]c3ccccc23)C(=O)N[C@H](C(N)=O)CSCCC4=O)C(C)C)cc1)C(C)C (stereo partly drawn) [BCY8245, MMAE-PABC-Cit-Val-Glutaryl-BCY8234] (I: [Sar][Sar][Sar][Sar][Sar][Sar][Sar][Sar][Sar][Sar]CP[1Nal][dD]CM[hArg]DWSTP[Hyp]WC-NH2 / II: [ξV][Cit][PABC][ξNMeV]V[X1][Dolaproine]-X2; linker I:11-I:15-I:25 via TATA; linker I:N-II:N via X3)
NCI-H292 xenograft; 3 mpk biw iv, day 0 (Table 9)
  Tumor volume: 162 ± 13 mm^3
NCI-H292 xenograft; 3 mpk biw iv, day 2 (Table 9)
  Tumor volume: 243 ± 19 mm^3
NCI-H292 xenograft; 3 mpk biw iv, day 4 (Table 9)
  Tumor volume: 211 ± 12 mm^3
NCI-H292 xenograft; 3 mpk biw iv, day 7 (Table 9)
  Tumor volume: 101 ± 11 mm^3
NCI-H292 xenograft; 3 mpk biw iv, day 9 (Table 9)
  Tumor volume: 100 ± 8 mm^3
NCI-H292 xenograft; 3 mpk biw iv, day 11 (Table 9)
  Tumor volume: 87 ± 7 mm^3
NCI-H292 xenograft; 3 mpk biw iv, day 14 (Table 9)
  Tumor volume: 65 mm^3 and 65 ± 3 mm^3
NCI-H292 xenograft; 3 mpk biw iv
  T/C: 6.9%
  TGI: 112.2%
NCI-H292 xenograft; 3 mpk qw iv, day 0 (Table 9)
  Tumor volume: 160 ± 5 mm^3
NCI-H292 xenograft; 3 mpk qw iv, day 2 (Table 9)
  Tumor volume: 220 ± 11 mm^3
NCI-H292 xenograft; 3 mpk qw iv, day 4 (Table 9)
  Tumor volume: 266 ± 15 mm^3
NCI-H292 xenograft; 3 mpk qw iv, day 7 (Table 9)
  Tumor volume: 218 ± 23 mm^3
NCI-H292 xenograft; 3 mpk qw iv, day 9 (Table 9)
  Tumor volume: 167 ± 10 mm^3
NCI-H292 xenograft; 3 mpk qw iv, day 11 (Table 9)
  Tumor volume: 161 ± 36 mm^3
NCI-H292 xenograft; 3 mpk qw iv, day 14 (Table 9)
  Tumor volume: 149 mm^3 and 149 ± 43 mm^3
NCI-H292 xenograft; 3 mpk qw iv
  T/C: 15.8%
  TGI: 101.4%
NCI-H292 xenograft; 5 mpk qw iv, day 0 (Table 9)
  Tumor volume: 160 ± 9 mm^3
NCI-H292 xenograft; 5 mpk qw iv, day 2 (Table 9)
  Tumor volume: 176 ± 7 mm^3
NCI-H292 xenograft; 5 mpk qw iv, day 4 (Table 9)
  Tumor volume: 191 ± 3 mm^3
NCI-H292 xenograft; 5 mpk qw iv, day 7 (Table 9)
  Tumor volume: 105 ± 8 mm^3
NCI-H292 xenograft; 5 mpk qw iv, day 9 (Table 9)
  Tumor volume: 82 ± 3 mm^3
NCI-H292 xenograft; 5 mpk qw iv, day 11 (Table 9)
  Tumor volume: 91 ± 14 mm^3
NCI-H292 xenograft; 5 mpk qw iv, day 14 (Table 9)
  Tumor volume: 83 mm^3 and 83 ± 8 mm^3
NCI-H292 xenograft; 5 mpk qw iv
  T/C: 8.8%
  TGI: 109.8%
NCI-H292 xenograft; after increasing the dosage to 3 mg/kg from day 7
  antitumor activity (in words): obvious antitumor activity
NCI-H292 xenograft; after increasing the dosage to 5 mg/kg on day 21
  efficacy (in words): not further improved
NCI-H292 xenograft; mouse, in vivo
  anti-tumour activity (in words): good anti-tumour activity
LU-01-0412 PDX; 1 mg/kg qw
  efficacy (in words): reduction in tumour growth rate
LU-01-0412 PDX; 3 mg/kg qw
  efficacy (in words): marked tumor regression
LU-01-0412 PDX; 3 mg/kg qw, after cessation of dosing (Day 21) out to 105 days post study start
  animals with no tumour regrowth: 5/6
LU-01-0412 PDX; single dose
  response of large tumors (vehicle treated group) to a single dose (in words): regressed
NCI-H526 xenograft; 3 mg/kg biw, day 14
  TGI: 21.6%
  Tumor volume (TV): 1109 mm^3
NCI-H526 xenograft; 3 mg/kg qw, day 14
  TGI: 13.4%
  Tumor volume (TV): 1205 mm^3
NCI-H526 xenograft; 5 mg/kg biw
  animal bodyweight loss: over 10%
NCI-H526 xenograft; 5 mg/kg qw, day 14
  TGI: 75.0%
  Tumor volume (TV): 476 mm^3
NCI-H526 xenograft; 3 mpk, biw, day 0 after the start of treatment
  Tumor volume: 182 mm^3
NCI-H526 xenograft; 3 mpk, biw, day 2
  Tumor volume: 232 mm^3
NCI-H526 xenograft; 3 mpk, biw, day 4
  Tumor volume: 308 mm^3
NCI-H526 xenograft; 3 mpk, biw, day 7
  Tumor volume: 440 mm^3
NCI-H526 xenograft; 3 mpk, biw, day 9
  Tumor volume: 530 mm^3
NCI-H526 xenograft; 3 mpk, biw, day 12
  Tumor volume: 810 mm^3
NCI-H526 xenograft; 3 mpk, biw, day 14
  Tumor volume: 1109 mm^3
  T/C: 81.3%
  TGI: 21.6%
  Tumor Volume (Mean ± SEM): 1109 ± 250 mm^3
NCI-H526 xenograft; 3 mpk, qw, day 0 after the start of treatment
  Tumor volume: 180 mm^3
NCI-H526 xenograft; 3 mpk, qw, day 2
  Tumor volume: 256 mm^3
NCI-H526 xenograft; 3 mpk, qw, day 4
  Tumor volume: 403 mm^3
NCI-H526 xenograft; 3 mpk, qw, day 7
  Tumor volume: 545 mm^3
NCI-H526 xenograft; 3 mpk, qw, day 9
  Tumor volume: 657 mm^3
NCI-H526 xenograft; 3 mpk, qw, day 12
  Tumor volume: 1019 mm^3
NCI-H526 xenograft; 3 mpk, qw, day 14
  Tumor volume: 1205 mm^3
  T/C: 88.3%
  TGI: 13.4%
  Tumor Volume (Mean ± SEM): 1205 ± 79 mm^3
NCI-H526 xenograft; 5 mpk, qw, day 0 after the start of treatment
  Tumor volume: 180 mm^3
NCI-H526 xenograft; 5 mpk, qw, day 2
  Tumor volume: 209 mm^3
NCI-H526 xenograft; 5 mpk, qw, day 4
  Tumor volume: 236 mm^3
NCI-H526 xenograft; 5 mpk, qw, day 7
  Tumor volume: 383 mm^3
NCI-H526 xenograft; 5 mpk, qw, day 9
  Tumor volume: 375 mm^3
NCI-H526 xenograft; 5 mpk, qw, day 12
  Tumor volume: 365 mm^3
NCI-H526 xenograft; 5 mpk, qw, day 14
  Tumor volume: 476 mm^3
  T/C: 34.9%
  TGI: 75.0%
  Tumor Volume (Mean ± SEM): 476 ± 103 mm^3
NCI-H526 xenograft; mouse, in vivo
  tumor response (in words): tumor growth is restrained by BCY8245 but the tumor does not undergo regression
